Source: publication PMC6085350, “Small molecule inhibitors of RAS-effector protein interactions derived using an intracellular antibody fragment” (Nature Communications, 2018)
In brackets after ≈: the same amount, converted by molar mass.

How the values were obtained:
[1] = Solubility; type: physicochemical
[2] = biological target: T1, GST-HRAS^G12V-GTPγS (Homo sapiens, UniProt P01112, G12V); experiment: SPR binding to immobilized GST-HRAS G12V-GTPγS
T1 construct: expression of HRAS (1-166) HRAS^G12V or KRAS^G12V cDNA cloned into the pGEX-2T vector; made in house; host or cells: E. coli C41(DE3)
Description: (§1) A BIAcore T100 (GE Healthcare) was used to screen the fragment library for RAS binders. A polyclonal goat anti-GST antibody (GE Healthcare) was immobilized on a CM5 sensor chip (GE Healthcare) by the amine coupling method. To immobilize the antibody on CM5 chip, the chip was first activated by injecting 100 µl mixture of 0.2 M EDC (N-ethyl-N-(dimethylaminopropyl) carbodiimide hydrochloride) and 0.05 M NHS (N-hydroxysuccinimide) at 10 µl/min flow rate. Furthermore, 100 µg/ml anti-GST antibody in 10 mM sodium acetate, pH 5.0 was injected at 5 µl/min for 900 s and immobilized until 20,000 ~ 25,000 RU. After immobilization the chip was immediately inactivated by injecting 1 M ethanolamine, pH 8.5 at 10 µl/min for 600 s. The chip was kept running in the HBS buffer (GE Healthcare) comprising 10 mM HEPES, pH 8.0, 150 mM NaCl. Of all, 5 µg/ml recombinant GST, GST-HRAS^G12V-GTPγS or GST-HRAS^G12V-GDP proteins were injected into flow cell Fc4, Fc2 and Fc3, respectively for trapping through the immobilized anti-GST antibody. The GST-HRAS^G12V-GTPγS, GST-KRAS^G12V-GppNHpp, or GST-HRAS^G12V-GDP proteins were injected at 5 µl/min for 900 s and usually reached approximately 2000–2500 RU. […]
The corresponding kinetic […], were determined using steady-state analysis of the compounds’ binding affinities, assuming 1:1 ligand-protein stoichiometry. […]

[3] = biological target: T2, GST-HRAS^G12V-GTPγS-anti-RAS single chain Fv (scFv) (Homo sapiens, UniProt P01112, G12V); experiment: Competitive SPR (cSPR) with anti-RAS scFv bound to HRAS; type: binding; settings: 3 to 2000 μM range
T2 construct: expression of HRAS (1-166) HRAS^G12V or KRAS^G12V cDNA cloned into the pGEX-2T vector; made in house; host or cells: E. coli C41(DE3)
Description: For competitive SPR (cSPR) assays between anti-RAS scFv and candidate fragment binder, after immobilizing anti-GST polyclonal antibody was immobilized on CM5 sensor chip as described above, then 5 µg/ml GST-HRAS-GTPγS protein was injected at 5 µl/min for 900 s to flow cells Fc2 and 4 and 5 µg/ml GST-HRAS-GDP to Fc3. Following GST-HRAS capture on the flow cells, 5 µg/ml anti-RAS scFv Y6-204 was injected at 5 µl/min for 900 s only to Fc4 until reaching an additional 1500–1800 RU, which is theoretically when all GST-HRAS-GTPγS should be bound to anti-RAS scFv with 1:1 interaction stoichiometry. After completing anti-RAS scFv injection, the sensograms were confirmed to be stable (i.e. anti-RAS scFv was not dissociated from GST-HRAS-GTPγS on Fc4). […]

[4] = biological target: T3, GST-HRAS^G12V-GDP (Homo sapiens, UniProt P01112, G12V); experiment: SPR binding to GDP-bound HRAS; settings: 3 to 2000 μM range
T3 construct: expression of HRAS (1-166) HRAS^G12V or KRAS^G12V cDNA cloned into the pGEX-2T vector; made in house; host or cells: E. coli C41(DE3)
Description: as §1

[5] = biological target: T4, KRAS^G12V-GppNHp (Homo sapiens, UniProt P01116, G12V); experiment: SPR binding to KRAS G12V-GppNHp; settings: 100 μM, run in triplicate
T4 construct: made in house; host or cells: E. coli (pGEX-2T; strain named only for the HRAS plasmids)
Description: A BIAcore T100 (GE Healthcare) was used to screen the fragment library for RAS binders. A polyclonal goat anti-GST antibody (GE Healthcare) was immobilized on a CM5 sensor chip (GE Healthcare) by the amine coupling method. To immobilize the antibody on CM5 chip, the chip was first activated by injecting 100 µl mixture of 0.2 M EDC (N-ethyl-N-(dimethylaminopropyl) carbodiimide hydrochloride) and 0.05 M NHS (N-hydroxysuccinimide) at 10 µl/min flow rate. Furthermore, 100 µg/ml anti-GST antibody in 10 mM sodium acetate, pH 5.0 was injected at 5 µl/min for 900 s and immobilized until 20,000 ~ 25,000 RU. After immobilization the chip was immediately inactivated by injecting 1 M ethanolamine, pH 8.5 at 10 µl/min for 600 s. The chip was kept running in the HBS buffer (GE Healthcare) comprising 10 mM HEPES, pH 8.0, 150 mM NaCl. Of all, 5 µg/ml recombinant GST, GST-HRAS^G12V-GTPγS or GST-HRAS^G12V-GDP proteins were injected into flow cell Fc4, Fc2 and Fc3, respectively for trapping through the immobilized anti-GST antibody. The GST-HRAS^G12V-GTPγS, GST-KRAS^G12V-GppNHpp, or GST-HRAS^G12V-GDP proteins were injected at 5 µl/min for 900 s and usually reached approximately 2000–2500 RU. The GST was injected at same flow rate until about 1200–1350 RU which is 0.54 times less than the GST-HRAS^G12V-GTPγS or GST-HRAS-GDP capture amounts, taking into consideration relative molecular weights (GST, 26KDa, GST-RAS, 48KDa, respectively). Before fragment library screening, the running buffer was replaced by 20 mM Tris, pH 8, 150 mM NaCl, 5 mM MgCl2, 5% DMSO. DMSO solvent correction curves were generated by injecting the running buffers with serial concentrations of DMSO ranging from 4.5 to 6%. […] The individual compounds were injected at 30 µl for 60 s at 30 µl/min flow rate over flow cells Fc1, Fc2, Fc3 and Fc4. The captured GST and GST-RAS were removed from the chip by rinsing with 40 µl 10 mM glycine-HCl, pH 2.1 at 20 µl/min flow rate after every 48 compounds sequential injection. The chip was regenerated by injecting new GST and GST-RAS proteins as described above.

[6] = test system: DLD-1 cells (KRAS^G13D); experiment: Cell viability (CellTiterGlo), DLD-1; type: cell-based, human; settings: DLD-1, 0–20 μM, up to 72 h
Description: (§2) Fig. 5 Abd-7 results on RAS-dependent signalling pathways and cell viability. a, b DLD-1 (a) or H358 (b) cells were serum-starved for 24 h, incubated in mono-layer with Abd-7 in a range from 2, 5, 10 and 20 μM for 3 h and stimulated with EGF 10 min. Proteins were extracted and separated by SDS-PAGE and transferred to membranes for Western analysis with anti-pAKT, anti-pERK, anti-pan AKT and anti-pan ERK. Anti-cyclophilin B antibody was the loading control. Signal was developed using standard ECL. c–e Effects of compounds Abd-2, Abd-4, Abd-5, Abd-6, and Abd-7 on the viability of human cancer cells lines was assessed for a 2-D culture of DLD-1 (mutant KRAS^G13D) cells and HT1080 cells (mutant NRAS^Q61K). The cells were treated with a dose range from 0 μM to 20 μ and incubated for 72 h when cell viability was assessed using CellTitreGlo. […] Each experiment was repeated at least three times (a, b) and four times (c, d). Where error bars are presented, they correspond to mean values ± SD of biological repeats […]
(§3) Cancer cell lines were in seeded in ViewPlates-96 microplates (PerkinElmer). DLD-1 cells were plated at 10,000 cells per well and HT1080 cells at 7500 cells per well and cultured in DMEM, high glucose, GlutaMAX media containing 10% FBS at 37 °C in 5% CO2 atmosphere. Cells were cultured overnight and the compounds (dissolved in DMSO and diluted to 0.2% DMSO) were added to the cells at concentrations ranging from 0 to 20 μM. The cells were incubated under standard culture conditions for either 24, 48 or 72 h. Cell viability was as quantitated using the CellTiterGlo Luminescent Cell Viability Assay (Promega) according to the manufacturer’s instructions to measure ATP generated by metabolically active cells. Luminescent signals were measured using an Envision 2103 Multilabel Microplate Reader (PerkinElmer). The luminescence signals obtained from the compound-treated cells were normalized against the signal for DMSO-only treated cells. The IC50 values, calculated from the 48 and 72 h CellTiterGlo data, were generated by non-linear regression using the software GraphPad Prism 7.00 for windows (GraphPad Inc).
(§4) Supplementary Figure 7: The effect of Abd compounds on the viability of cancer cells The effect of the chemical series on the viability of human cancer cells lines DLD -1 (a colorectal cancer cell line with mutant KRAS
(§5) ) and HT1080 (a fibrosarcoma cell line with
(§6) ). The cells were treated with a dose range from […] of either
(§7) Abd-2, Abd-4, Abd-5, Abd-6 and Abd-7 and incubated for 24 or 48 hours. Cell viability was assessed using CellTitreGlo . In each case, the data are normalized to cells treated with DMSO only. Panels a and b are DLD-1 viability and panels c and d are HT1080 viability.
(§8) The IC50 for Abd-7 at 48 & 72 […]
(§9) hours are shown in panel f. Each experiment was repeated at least four times ( a to d).
(§10) Where error bars are presented, they correspond to mean values ± SD of biological repeats.
(§11) (1 picture or pasted object on this page, not shown here)

[7] = test system: RAS-effector PPI; experiment: RAS biosensor BRET assay (partners not specified); type: cell-based, human
Description: The BRET assay was carried out as described elsewhere. A total of 650,000 HEK293T were seeded in each well of a six well plate. Approximately, 24 h later, cells were transfected with an appropriated BRET-based RAS biosensor (i.e. RAS-effector) using Lipofectamine 2000 transfection reagent (Thermo-Fisher). Cells were detached 24 h later and washed with PBS and seeded in a white 96 well plate (clear bottom, PerkinElmer, cat#6005181) in OptiMEM no phenol red medium (Life Technologies) complemented with 4% FBS. Cells were left for 4 h at 37 °C before adding compounds. […] The final concentrations in the cells were 0, 5, 10 and 20 μM (therefore the intermediate 10X concentrations were 0, 50, 100 and 200 μM. Furthermore, 10 μl of 10X compounds were added in each well of the 96 well plate to 0, 5, 10 and 20 μM final concentrations (with final 0.2% DMSO each). Quadruplicates were performed for each point. Cells were left for an additional 20 h at 37 °C before the BRET2 signal reading directly after addition of Coelenterazine 400a substrate (10 μM final) to cells (Cayman Chemicals, cat#16157). BRET2 reading was carried out on an Envision instrument (2103 Multilabel Reader, PerkinElmer) with the BRET2 Dual Emission optical module (515 nm ± 30 and 410 nm ± 80; PerkinElmer).

[8] = test system: HT1080 cells (NRAS^Q61K); experiment: Cell viability (CellTiterGlo), HT1080; type: cell-based, human; settings: HT1080, 0–20 μM, up to 72 h
Description: as §2, §3, §4, §5, §6, §7, §8, §9, §10, §11

## O=C(Nc1ccc2ccccc2n1)c1ccco1 [Abd-1, N-(2-quinolinyl)-2-furamide]
[1]
  solubility: 140 µM (≈ 33.4 µg/mL)
[2]; 3 to 2000 μM range
  binding to GST-HRAS^G12V-GTPγS (SPR dose response): bound and bind
[2]; SPR, estimated, single experimental analysis
  Kd: > 370 µM
[3]
  binding to HRAS^G12V in complex with anti-RAS scFv (cSPR): no binding
[4]
  binding to GDP-bound form of HRAS (SPR): no binding

## O=C(NC[C@H]1COc2ccccc2O1)c1ccco1 [Abd-2a]
[5]
  binding to KRAS^G12V-GppNHp (SPR): bind

## O=C(NC[C@@H]1COc2ccccc2O1)c1ccco1 [Abd-2b]
[5]
  binding to KRAS^G12V-GppNHp (SPR): bind

## NCC1COc2cc(Cl)ccc2O1 (centres unmarked) [Abd-3]
[5]
  binding to KRAS^G12V-GppNHp (SPR): lower affinity than Abd-2

## CN(C)CCOc1ccc(C(=O)NCC2COc3ccccc3O2)cc1 (centres unmarked) [Abd-4]
[6]
  effect on cell viability: no effect on cell viability
[7]
  activity in the RAS biosensor BRET assay: do not show activity
[8]
  effect on cell viability: no effect on cell viability
